# According to US20140335021A1, “Ocular Neostigmine Drops for Diagnosing Myasthenia Gravis” (priority 2013, published 2014):
# Columns and labels:
# [1] = tested on: patients with probable or definite MG; test: Ocular neostigmine drop test for ptosis in patients with probable or definite myasthenia gravis; type: in vivo, human
# Procedure: (§1) 2) experiments in which the standard IV neostigmine solution was instilled into both eyes of patients with probable or definite symptomatic MG.
# (§2) Both sets of experiments used the standard neostigmine (2.5 mg/ml) solution available in hospitals for anesthetic/surgical use for reversal of neuromuscular block. This solution is buffered and FDA-approved for use in humans. In both sets of experiments, one drop of this solution was used in an eye, limiting substantially the amount of drug that might be absorbed systemically.
# Patients with probable or definite MG were asked to sign informed consent approved by the appropriate Institutional Ethics Committees. Ptosis was recorded photographically, and pulse and blood pressure were also recorded prior to beginning the test. One drop of standard IV neostigmine solution (2.5 mg/ml) was instilled into each symptomatic eye of the patient. Fifteen minutes later, possible changes in ptosis were assessed. Pulse and blood pressure was recorded again and after another 15 minutes. At 30 minutes, the patient was evaluated also for possible changes in ptosis (documented by photography), obvious irritation of either eye and for report of discomfort.
# Six patients (3 males and 3 females) who presented with ptosis and/or ocular motility disturbance were enrolled in the study. Their ages ranged between 4.5 and 55 years (median=42 years, mean=36.4 years). […]
# [2] = tested on: New Zealand White rabbits; test: Ocular inflammation on daily instillation for 7 days in rabbits; type: in vivo; settings: one drop daily for 7 days, rabbit eye
# Procedure: as §1
# (§3) The pupil size of both the right and left eyes of each rabbit was measured at baseline in mms by using a plastic ruler. After instilling the neostigmine solution (right eye) or saline (left eye), the pupil size was measured again at 30 minute intervals following drug or saline instillation. One drop of neostimine was instilled daily for 7 days and signs of ocular inflammation were observed.
# [3] = tested on: New Zealand White rabbits; test: Pupillary size after ocular instillation of neostigmine solution in rabbits; type: in vivo, rabbit; settings: for mean [SD] pupillary size, right eye: saline left eye 7.0 mm, p=0.0001
# Procedure: as §1, §2
# Male New Zealand White rabbits (2.5-3.0 kg body weight) were used in all experiments. The animals were kept in a room of controlled room temperature (24.0+1.0° C.) and humidity and a fixed dark light cycle (light on at 7:00 am and off at 19:00 pm).
# The sterile neostigmine solution (2.5 mg/ml) was instilled into the right eye (one drop), while the control eye (left eye) received one drop of sterile saline (0.9% sodium chloride). Assessment of pupillary size was done at 30 minute intervals following instillation of neostigmine. The left eye of each rabbit acted as control for the right one.
# The amount of neostigmine methylsulphate was calculated to be 0.1 mg/drop. Therefore, each rabbit's eye was instilled by 0.1 mg of sterile neostigmine methylsulphate. The sterile dropper for instilling neostigmine was used only once and then discarded. To prevent the drop of neostigmine from leaking out of the rabbit's eye, the lower eye lid of the rabbits was held out for at least 2-3 minutes in order to keep the drop inside the eye and allow for better absorption of the drug through the cornea.
# as §3
# The mean values for the pupil sizes of the right eyes were recorded as well as those of the left eyes, separately. Paired t-test was used for comparison of data among the different groups on SPSS software. A probability value of <0.05 was considered to be significant.
compound,measurement,setting,value
"CN(C)C(=O)Oc1cccc([N+](C)(C)C)c1 [neostigmine, 3-(trimethylamino)phenyl N,N-dimethylcarbamate]",response of ptosis (palpebral fissure height),"[1]; 3 patients with no prior treatment for MG (Patients 1, 2 and 5)",dramatic
same,increase of the palpebral fissure height,"[1]; all 6 patients with MG, 30 minutes after instillation of one drop 2.5 mg/ml per symptomatic eye",at least 2 mm
same,ocular inflammation,[2],no ocular inflammation
same,"pupil diameter, right eye, representative rabbit (FIG. 2)","[3]; 1 week after daily instillation of 1 drop, last drop 24 hours previously",6.0 mm
same,"pupil diameter, right eye, representative rabbit (FIG. 2)","[3]; 30 mins post neostigmine, pre 6.0 mm",2.0 mm
same,"mean [SD] pupillary size, right eye","[3]; 30 minutes after one drop of 2.5 mg/ml solution (0.1 mg) in right eye, 30 rabbits",4.8 mm
same,"pupil diameter, right eye, representative rabbit (FIG. 2)","[3]; 60 mins post neostigmine, pre 6.0 mm",1.5 mm
same,"mean [SD] pupillary size, right eye",[3]; 60 minutes after one drop of 2.5 mg/ml solution (0.1 mg) in right eye,4.8 mm
